Experiments:
Type in all cases: cell-based, human
HepG2 cells [1] = assay: Cell viability by MTT assay in HepG2 cells with hepatocyte damage induced by hydrogen peroxide; details: HepG2 cells damaged by hydrogen peroxide; result in words
Method: (§1) A human liver cancer-derived cell line (HepG2: HB-8065™, Lot No. 70029112) was obtained from the American Type Culture Collection, and Dulbecco's Modified Eagle Medium (Thermo Fisher Scientific K.K.) containing 10% FBS was used as the basal medium. The cells were cultured in a 37°C, 5% CO2 incubator, and cells passaged for 17 to 22 generations were used for the experiments.
(§2) A cell suspension adjusted to an initial cell concentration of 2 x 10^4 cells/mL was seeded at 0.15 mL into a 96-well plate (Thermo Fisher Scientific K.K.).
After 20 hours of culture from seeding, alpha-lipoic acid trisulfide (LASSS) or alpha-lipoic acid trisulfide choline ester (LASSS-CE) was added to the medium in groups with a final concentration of 0.025 mM or 0.05 mM. Separately, a group to which only the solvent for LASSS or LASSS-CE (phosphate-buffered saline (PBS) containing 4% DMSO (FUJIFILM Wako Pure Chemical Corporation)) was added was designated as the solvent-added group. […] After culturing for 2 hours following the addition of hydrogen peroxide solution or PBS, cell viability was measured by the MTT assay to evaluate the extent of hepatocyte injury. […]

[2] = Cell viability by MTT assay in HepG2 cells without hydrogen peroxide (effect on cell proliferation itself); details: human, hepg2 cells, PBS instead of hydrogen peroxide, control group = 100; for viability at 25 µM: Sample-added group (0.025 mM); for viability at 50 µM: Sample-added group (0.05 mM)
Method: as §1, §2
(§3) After 20 hours of culture from seeding, alpha-lipoic acid trisulfide (LASSS) or alpha-lipoic acid trisulfide choline ester (LASSS-CE) was added to the medium in groups with a final concentration of 0.025 mM or 0.05 mM. Separately, a group to which only the solvent for LASSS or LASSS-CE (phosphate-buffered saline (PBS) containing 4% DMSO (FUJIFILM Wako Pure Chemical Corporation)) was added was designated as the solvent-added group. After 4 hours of culture following the sample addition, the medium of the above sample-added groups and the solvent-added group was replaced with a medium (not containing LASSS or LASSS-CE) to which hydrogen peroxide solution (FUJIFILM Wako Pure Chemical Corporation) had been added to a final concentration of 0.1 mM, thereby inducing hepatocyte damage. A group in which the same amount of PBS was added instead of hydrogen peroxide solution to the solvent-added group was designated as the control group. After culturing for 2 hours following the addition of hydrogen peroxide solution or PBS, cell viability was measured by the MTT assay to evaluate the extent of hepatocyte injury. In the table, SD represents standard deviation.
(§4) Furthermore, to evaluate the effect of LASSS and LASSS-CE on cell proliferation itself, a similar experiment was conducted by replacing the addition of hydrogen peroxide solution with the addition of the same amount of PBS, and the cell viability was measured by the MTT assay method.

HepG2 cells [3] = assay: as above; details: without hydrogen peroxide solution; result in words
Method: as §1, §2, §3, §4

Row | Structure (SMILES) | cell viability compared to the hydrogen peroxide-added group (HepG2 cells [1]) | viability at 25 µM [2] | viability at 50 µM [2] | effect on the proliferation of HepG2 cells (HepG2 cells [3])
1 | O=C(O)CCCCC1CCSSS1 (stereo not drawn) [LASSS, alpha-lipoic acid trisulfide] | an improvement in cell viability was confirmed | 102% | 102% | did not affect the proliferation of HepG2 cells
2 | C[N+](C)(C)CCOC(=O)CCCCC1CCSSS1 (stereo not drawn) [LASSS-CE, alpha-lipoic acid trisulfide choline ester] | an improvement in cell viability was confirmed | 109% | 106% | did not affect the proliferation of HepG2 cells

Source: patent EP4714441A1, “COMPOSITION FOR PREVENTING OR ALLEVIATING HEPATIC DYSFUNCTION” (KIRIN HOLDINGS KABUSHIKI KAISHA, priority 2023, dated 2025)
